Series [1] is described as follows: Body weight of hamsters, LUM001 for 28 days. In kind it is in vivo, golden Syrian hamsters. As to conditions: n=10. As for the experimental part:
Male golden Syrian hamsters (126-147 gm) were obtained from Charles Rivers Laboratories and were single housed in a constant temperature environment with alternating 12-hour light and dark cycles. Hamsters were fed Teklad 7001 rodent meal chow at libitum for two weeks before the experimental studies began and switched to Teklad 7001 rodent meal chow supplemented with 0.24% cholesterol on day one of the 28-day experiment. LUM001 was dissolved in an aqueous solution of 0.2% (w/v) Tween 80 and administered Q.D. by intragastric gavage between 9 a.m. and 10 a.m. each morning using a syringe fitted with a flexible feeding tube. Blood samples were collected after 14- and 28-day treatment periods by orbital sinus and cardiac puncture, respectively. Hamsters were anesthetized but not fasted prior to blood collections. Fecal samples were collected during a 48-hour period at the end of days 14 and 28 (i.e., days 13-14 and 27-28, respectively).

Series [2] concerns Cholesterol 7-α hydroxylase. In words: Cholesterol 7-α hydroxylase activity in liver microsomes of treated dogs. As to conditions: 14 Days; for Cholesterol 7a-hydroxylase: n=8. In kind it is in vivo, beagle dogs. The procedure:
Healthy female and male beagle dogs in the age range of 8 to 10 months were used. The animals were acclimated for at least four weeks before dose administration. Four female and four male dogs per dose group (groups 2-5) were given single daily doses of LUM001 at 1, 4, 12 and 30 mg free form/kg for 13 days. Animals in the control group (group 1) were given the same number of empty capsules as the animals of group 5 to treat all dose groups the same.
At the end of the study, animals were anesthetized, their livers removed and flash frozen and stored at −80 C. Homogenates of three gram liver tissue samples were prepared in 25 ml homogenization buffer [0.1 M potassium phosphate buffer, pH 7.2, containing 0.1 M sucrose, 50 mM KCl, 50 mM NaF, 5 mM ethylene glycol-bis((3-aminoethyl ether)-N,N,N′,N′-tetraacetic acid (EGTA), 1 mM EDTA, 3 mM dithiothreitol (DTT), and 1 mM phenylmethylsulfonyl fluoride (PMSF)]. A microsomal fraction was prepared by centrifugation at 10,000×g for ten minutes. The supernatant was subjected to centrifugation at 105,000×g for two hours. The microsomal fraction was resuspended in a 0.1 M Na tetrapyrophosphate buffer (pH 10), with 50 mM NaF, and 1 mM EDTA, and subjected to centrifugation for one hour at 105,000×g. The microsomal fraction was resuspended in the homogenization buffer, and assayed for protein content by Coomassie Protein Plus Assay reagent.
Liver microsomes (1 mg) or 7-α-hydroxycholesterol standard solutions were preincubated for five minutes at 37° C. in a rocking water bath with 500 μl 5× buffer, 1.7 ml water, and 50 μl 0.1% (w/v) cholesterol as substrate in excess. The 5× buffer consists of 0.42 M Na2HPO4, 0.25 mM NaF, 0.08 M KH2PO4, 5 mM EDTA and 10 mM DTT. The reaction tubes were incubated at 37° C. in a rocking water bath throughout the remainder of the assay protocol, with cessation of rocking only for the period of time needed to add solutions. After the preincubation period, 250 μl of 10 mM NADPH was added and incubated for 5 minutes to allow enzymatic conversion of the cholesterol substrate to 7-α-hydroxycholesterol by endogenous 7-α-hydroxylase. The reaction was stopped by addition of 75 μl of 20% sodium cholate.
After four minutes, 25 μl of 100 μM 20-α-hydroxycholesterol was added to each tube as an internal recovery standard. The tubes were allowed to rock briefly in the water bath to mix, then 40 μl of 25 U/ml cholesterol oxidase was added and the tubes were incubated for ten minutes to convert 7-α-hydroxycholesterol and 20-α-hydroxycholesterol to their ketone forms, 7-α-hydroxycholesten-3-one and 20-α-hydroxycholesten-3-one. After the enzymatic reactions were completed, the ketone products were isolated by four sequential extractions in 20, 10, 10 and 10 ml petroleum ether, respectively. The collected volumes were evaporated to dryness under a flow of nitrogen gas between each extraction step using a heat block set at 50° C. The final dried samples were resuspended in 125 μl mobile phase solution consisting of 70:30 acetonitrile/methanol for analysis by reversed phase HPLC. Chromatography was performed on a 4.6×250 mm Beckman Ultrosphere ODS reverse phase column in mobile phase solution. The analyte, 7-α-hydroxy-4-cholesten-3-one, is quantified by absorption at 254 nm using the internal standard 20-α-hydroxy-4-cholesten-3-one to control for extraction efficiency.

Series [3] is described as follows: Systemic exposure of LUM001 in patients under 18 years (study NB-00-02-014). In kind it is in vivo, human. As to conditions: for Average serum drug exposure: day eight. The procedure:
(§1) LUM001 has been administered to forty patients under the age of 18 years old. […] The drug was administered once-a-day (QD) in the morning for fourteen days. […] These doses are similar to those using to treat patients with Barrett's esophagus or GERD.

In a further series the test system is serum bile acids. The experiment in a line: Fasting and post-prandial serum bile acids in children and adolescents on LUM001. In kind it is in vivo, human. The procedure:
as §1
The efficacy of LUM001 was determined by measuring total serum bile acids after eight days of dosing in children and adolescents under the age of eighteen. Thirty minutes before the next drug administration, at approximately 8 am in the morning, serum bile acid levels were measured. The child had refrained from food for 12 hours prior to this sample thus providing a fasted level of serum bile acid. After breakfast, serum bile acids were measured for up to the next 4 hours (8 am to noon) and the peak serum bile acid concentration noted.

The test system of series [4] is Alanine Aminotransferase (ALAT). In words: Plasma alanine aminotransferase in ZDF rats, week 3. The format is in vivo. As to conditions: twice daily oral gavage.
Another series relates to GLP-2. The experiment in a line: GLP-2 in plasma of non-fasted ZDF rats, 2 weeks treatment. In kind it is in vivo.

For `CCCCC1(CCCC)CS(=O)(=O)c2ccc(N(C)C)cc2[C@@H](c2ccc(OCc3ccc(C[N+]45CCN(CC4)CC5)cc3)cc2)[C@H]1O` [LUM001], the “Body Weight (BW)” value in series [1] (5 mg/kg/day) is recorded as 130 g; in series [1] (15 mg/kg/day) it was 136 g; in series [1] (50 mg/kg/day), 130 g. The “Cholesterol 7a-hydroxylase, % change from vehicle group” value in series [2] (1 mg/kg/day) is listed as “(+28) %”; in series [2] (4 mg/kg/day) it was “(+101) %”; in series [2] (12 mg/kg/day), “(+219) %”; in series [2] (30 mg/kg/day), “(+378) %”. In addition, the “Cholesterol 7a-hydroxylase” value came to 114 ± 18 pmol/mg/min in series [2] (1 mg/kg/day), 179 ± 22 pmol/mg/min in series [2] (4 mg/kg/day), 284 ± 41 pmol/mg/min in series [2] (12 mg/kg/day) and 425 ± 58 pmol/mg/min in series [2] (30 mg/kg/day). For the same molecule, the “Average serum drug exposure” value in series [3] (Subject 0304, 1.0 mg QD (24.3 μg/kg)) turned out to be 0.0 ng/mL; in series [3] (Subject 0308, 1.0 mg QD (28.9 μg/kg)), 0.0 ng/mL; in series [3] (Subject 0309, 1.0 mg QD (35.0 μg/kg)) it was 0.0 ng/mL; in series [3] (Subject 0410, 2.5 mg QD (42.0 μg/kg)), 0.0 ng/mL; in series [3] (Subject 0510, 5.0 mg QD (168.4 μg/kg)) it was 0.0 ng/mL. Also, the “Systemic exposure of LUM001” value in series [3] (patients under 18 years, QD, measured on day eight) was “confirmed to be minimally absorbed”. For the same molecule, the “Decrease of average fasting serum bile acid vs placebo patients” value in the series with serum bile acids (LUM001 treated patients) came out at 24%. Besides, the “Decrease of average post-prandial peak serum bile acid vs placebo patients” value with serum bile acids (LUM001 treated patients) turned out to be 23%. In the series on serum bile acids (LUM001 treated patients (placebo 11.9)), the “Average post-prandial peak serum bile acid level” value is 9.2 µmol/L. The “Morning Post-prandial peak serum bile acid” value was found to be 8.4 µmol/L with serum bile acids (Patient 304, 1 mg, after eight days of dosing); 9.3 µmol/L with serum bile acids (Patient 308, 1 mg, after eight days of dosing); 10.0 µmol/L in the series on serum bile acids (Patient 309, 1 mg, after eight days of dosing); 6.8 µmol/L with serum bile acids (Patient 401, 2.5 mg, after eight days of dosing). Moreover, in the series on serum bile acids (children and adolescents, after eight days of dosing), the “Fasting and post-prandial peak levels of serum bile acids” value is “generally decrease both the fasting and post-prandial peak levels of serum bile acids”.
As to `CCCC[C@]1(CC)CS(=O)(=O)c2ccc(N(C)C)cc2[C@@H](c2cccc(NC(=O)N[C@@H]3O[C@H](COS(=O)(=O)[O-])[C@@H](O)[C@H](OCc4ccccc4)[C@H]3O)c2)[C@H]1O.CCO.O.[K+]` [LUM002, potassium((2R,3R,4S,5R,6R)-4-benzyloxy-6-{3-[3-((3S,4R,5R)-3-butyl-7-dimethylamino-3-ethyl-4-hydroxy-1,1-dioxo-2,3,4,5-tetrahydro-1H-benzo[b]thiepin-5-yl)-phenyl]-ureido}-3,5-dihydroxy-tetrahydro-pyran-2-ylmethyl)sulphate ethanolate, hydrate], the “Plasma alanine aminotransferase (ALAT)” value in series [4] was “Neither LUM002 nor SC-435 caused statistically significant reductions”. In the series on GLP-2, the GLP-2 in plasma result is “significant elevations in GLP2 at higher doses”.

The values above are taken from patent US20140271734A1, “BILE ACID RECYCLING INHIBITORS FOR TREATMENT OF BARRETT'S ESOPHAGUS AND GASTROESOPHAGEAL REFLUX DISEASE” (LUMENA PHARMACEUTICALS, INC., priority 2013, published 2014).
